Test results as given in patent publication US20230039836A1, “AROMATIC SULPHONAMIDES DERIVATIVES THAT INHIBITS PDI A3, THEIR SYNTHESIS AND USE” (Uniwersytet Jagiellonski, priority 2020, published 2023).

Tests used:
PDI A1 = biological target: T1, PDI A1 (Homo sapiens, UniProt P07237); experiment: Insulin turbidometric assay, inhibition of PDI A1; assay type: biochemical; settings: insulin reduction, turbidity at 650 nm, 60 min incubation at 37° C.; read-out: Inhibition of PDI A1 (EC 50)
T1 construct: purchased Mybiosource; host or cells: E. coli
T1 sequence (P07237 18-508, species assumed): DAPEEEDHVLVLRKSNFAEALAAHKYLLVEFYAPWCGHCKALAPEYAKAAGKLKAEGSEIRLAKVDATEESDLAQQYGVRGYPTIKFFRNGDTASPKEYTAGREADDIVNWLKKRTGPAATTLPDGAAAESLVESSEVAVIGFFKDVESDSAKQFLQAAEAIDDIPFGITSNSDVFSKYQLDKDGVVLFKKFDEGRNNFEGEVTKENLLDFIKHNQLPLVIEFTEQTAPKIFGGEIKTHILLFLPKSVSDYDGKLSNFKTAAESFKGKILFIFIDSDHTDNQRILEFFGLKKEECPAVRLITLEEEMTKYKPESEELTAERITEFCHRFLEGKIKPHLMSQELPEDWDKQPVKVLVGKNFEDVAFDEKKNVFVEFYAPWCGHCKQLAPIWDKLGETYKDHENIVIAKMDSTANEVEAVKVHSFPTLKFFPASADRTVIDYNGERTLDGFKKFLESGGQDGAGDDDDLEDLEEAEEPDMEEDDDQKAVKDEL
Protocol: The inhibitory effects compounds of invention on activity of PDI A1 was assess based on the insulin turbidometric assay. Enzymatic activity of PDIA1 was confirmed by measuring the turbidity increase at 650 nm due to insulin reduction. The assay mixture was prepared by addition 10 ug/ml PDIA1 (E.coli recombinant protein; Mybiosource), 0.1 mM phosphate buffer (pH7.6), 1 mM EDTA, 0.087 mM DTT and with or without tested compound and was incubated for 60 min, at 37° C. Reaction was started by addition insulin and DTT. Final concentration of insulin and DTT in assay mixture was 0.15 mM and 0.174 mM, respectively. Turbidity was detected at 650 nm against reference samples without PDI A1s. The measurements were performed at 650 nm using 120-s recordings.

[1] = test system: Caco-2 (human colon adenocarcinoma); experiment: MTT antiproliferative assay, 48 h; assay type: cell-based; settings: for IC50: Homo sapiens, Caco-2, 48-hour exposition, read-out: Cytotoxicity, IC50, µM CaCo-2
Protocol: (§1) About 2000-4000 cells per well (depending on line nature) were placed in 96-well plates and after 24 h compounds were added to the wells. Untreated cells were used as a control. The plates were incubated for 48 h, 37° C., 5% CO2. The number of surviving cells was determined using 3-(4,5-dimethylthiazol-2-yl)-2,5-diphenyltetrazolinium bromide (MTT). MTT-test: after incubating culture medium was removed and 200 µL fresh medium with 20 µL MTT (2 mg/mL in HBSS) was added in each well of the plate. After incubation (3 hr., 37° C., 5% CO2), the medium with MTT was removed and 200 µL DMSO were added at once to each sample. The samples were tested at 540 nm on Thermo Scientific Multiskan EX microplate photometer. The half-maximal inhibitory concentration (IC50) of each compound was calculated using Graph Pad Prism® 3.0.

[2] = test system: MCF-7 (human breast adenocarcinoma, estrogen-positive); experiment: MTT antiproliferative assay, 48 h; assay type: cell-based; settings: for IC50: Homo sapiens, MCF7, 48-hour exposition, read-out: Cytotoxicity, IC50, µM MCF-7
Protocol: as §1

[3] = test system: MDA-MB-231 (human mammary breast adenocarcinoma); experiment: MTT antiproliferative assay, 48 h; assay type: cell-based; settings: for IC50: Homo sapiens, MDA-MB-231, 48-hour exposition, read-out: Cytotoxicity, IC50, µM MDA-MB-231
Protocol: as §1

[4] = test system: HT-1080 (human fibrosarcoma); experiment: MTT antiproliferative assay, 48 h; assay type: cell-based; settings: 48-hour exposition, read-out: Cytotoxicity, IC50, µM HT-1080
Protocol: as §1

SMILES | EC50 (PDI A1) [µM] | melting point [°C] | IC50 [1] [µM] | IC50 [2] [µM] | IC50 [3] [µM] | IC50 [4] [µM] | Cytotoxicity, IC50, µM CaCo-2 ([1]; 48-hour exposition) | Cytotoxicity, IC50, µM MCF-7 ([2]; 48-hour exposition) | Cytotoxicity, IC50, µM MDA-MB-231 ([3]; 48-hour exposition)
COC(=O)C1CN1S(=O)(=O)c1ccc2c(C=O)c(N(C)C)ccc2c1 (stereo not drawn) [Compound C-3390, Methyl 1-[[6-(dimethylamino)-5-formyl-2-naphthyl]sulfonyl]aziridine-2-carboxylate] | 0.6 |  | 11 ± 2 | 20 ± 0.3 | 18 ± 0.1 | 7.9 ± 0.9 |  |  | 
CNc1ccc2cc(S(=O)(=O)N3CC3C(=O)OC)ccc2c1Cl (stereo not drawn) [Compound C-3393, Methyl 1-[[5-chloro-6-(methylamino)-2-naphthyl]sulfonyl]aziridine-2-carboxylate] | 0.34 | 170 to 172 | 35 ± 1 | 29 ± 3 | 32 ± 4 | 0.46 ± 0.04 |  |  | 
CN(C)c1ccc2c(S(=O)(=O)N3CC3C(N)=O)cccc2c1 (stereo not drawn) [Compound C-3459, 1-[[6-(Dimethylamino)-1-naphthyl]sulfonyl]aziridine-2-carboxamide] | 33 | 197 to 199 |  |  |  | > 500 | n.e. | n.e. | n.e.
COC(=O)[C@@H]1CN1S(=O)(=O)c1ccc(C)cc1 (stereo partly drawn) [Compound C-3535, Methyl (2S)-1-(p-tolylsulfonyl)aziridine-2-carboxylate] | 11.2 |  | 35 ± 7 | 81 | 107 ± 11 | 84 ± 3 |  |  | 
COC(=O)[C@H]1CN1S(=O)(=O)c1ccc(C)cc1 (stereo partly drawn) [Compound C-3539, Methyl (2R)-1-(p-tolylsulfonyl)aziridine-2-carboxylate] | 29 |  | 23 ± 1 | 113 ± 6 | 40 ± 5 | 20 ± 1 |  |  | 
COC(=O)[C@@H]1CN1S(=O)(=O)c1cccc2cc(N(C)C)ccc12 (stereo partly drawn) [Compound C-3548, Methyl (2S)-1-[[6-(dimethylamino)-1-naphthyl]sulfonyl]aziridine-2-carboxylate] | 6 |  | 45 ± 13 | 37 ± 3 | 57 ± 9 | 9.2 ± 1 |  |  | 

Second part, led by results:

EC50 (PDI A1) [µM] | melting point [°C] | SMILES | IC50 [1] [µM] | IC50 [2] [µM] | IC50 [3] [µM] | IC50 [4] [µM] | Cytotoxicity, IC50, µM CaCo-2 ([1]; 48-hour exposition) | Cytotoxicity, IC50, µM MCF-7 ([2]; 48-hour exposition) | Cytotoxicity, IC50, µM MDA-MB-231 ([3]; 48-hour exposition)
10.6 |  | COC(=O)C1CN1S(=O)(=O)c1cccnc1 (stereo not drawn) [Compound C-3559, Methyl 1-(3-pyridylsulfonyl)aziridine-2-carboxylate] | 260 ± 55 | 154 ± 25 | 128 ± 8 | 372 ± 23 |  |  | 
29 | 147 to 149 | NC(=O)C1CN1S(=O)(=O)c1cccnc1 (stereo not drawn) [Compound C-3562, 1-(3-pyridylsulfonyl)aziridine-2-carboxamide] | 36 ± 6 | 57 ± 5 | 24 ± 2 | 31 ± 2 |  |  | 
11 |  | COC(=O)[C@H]1CN1S(=O)(=O)c1cccc2cc(N(C)C)ccc12 (stereo partly drawn) [Compound C-3570, Methyl (2R)-1-[[6-(dimethylamino)-1-naphthyl]sulfonyl]aziridine-2-carboxylate] | 13 ± 1 | 29 ± 2 | 14 ± 3 | 12 ± 1 |  |  | 
